Test results from PMC12152147, “DDB1 engagement defines the selectivity of S656 analogs for cyclin K degradation over CDK inhibition” (EMBO Reports, 2025).
Several values for one entry are separate records, joined by “and”; a condition that tells them apart may be missing. Equal entries are not always repeated.

Assays:
OCI-AML5 cells = assay: Cell death by Annexin V/PI staining; assay type: cell-based, H. sapiens; conditions: 24 h
CD34+ cord blood cells = assay: Chemical screen / dose response on CD34+ cord blood cells; assay type: cell-based, Human
Method: Fresh umbilical cord blood units were collected from consenting donors according to ethically approved procedures at St Justine, Maisonneuve-Rosemont (Montréal, QC, Canada) and Charles Le Moyne (Longueuil, QC, Canada, approval reference number AA-HCLM-16-014) Hospitals. Human CD34^+ cells were isolated using the EasySep Human Cord Blood CD34^+ Selection Kit through positive magnetic selection. Chemical screen was performed as described in primary AML with the following modifications: 2000 cord blood cells were seeded, CB media contains StemSpan-ACF supplemented with 100 ng/mL SCF, 100 ng/mL FLT3L, 50 ng/mL TPO, 10 μg/mL LDL, 1× glutamax, gentamicin (50 μg/mL), ciprofloxacin (10 μg/mL), SR1 (500 nmol/L) and UM729 (500 nmol/L).
Dose-response assays in primary AML specimens were performed as in chemical screen (see above) with the exception that compounds were tested in serial dilution (8 dilutions, 1:4, 10 μM down to 0.5 nM). Dose-response assays in OCI-AML5 cell line were conducted similarly with the following modifications: 300 cells per well were seeded in 50 μL of cell line media and cell viability was evaluated after 4 days in culture.

tumor growth = tested on: tumor growth; set-up: method as in Dieter et al. (PMID34289372); conditions: orally in mice, 20 mg/kg, 5 days per week; ref Dieter et al. (PMID34289372); cited from earlier work

SMILES	Early Apoptosis (FITC+/PI-) (OCI-AML5 cells; S656 1uM)	Live(FITC-/PI-) (OCI-AML5 cells; S656 1uM)	Necrosis (FITC-/PI+) (OCI-AML5 cells; S656 1uM)	Late Apoptosis (FITC+/PI+) (OCI-AML5 cells; S656 3uM)	Live(FITC-/PI-) (OCI-AML5 cells; S656 3uM)	Necrosis (FITC-/PI+) (OCI-AML5 cells; S656 3uM)	Late Apoptosis (FITC+/PI+) (OCI-AML5 cells; S656 5uM)	Live(FITC-/PI-) (OCI-AML5 cells; S656 5uM)	Necrosis (FITC-/PI+) (OCI-AML5 cells; S656 5uM)	IC50 (CD34+ cord blood cells; Homo sapiens, dose-response, read-out: IC50 on purified CD34+ cells from cord blood) [µM]	activity against CD34+ cord blood cells (CD34+ cord blood cells; discovery screen, 1 μM, 6 days)	tolerability in animals (tumor growth)	tumor growth in vivo (tumor growth)
CN(C)c1ccc(CC(=O)Nc2ncc(SCc3cccnc3)s2)cc1 [S656]	5.3% and 6.01% and 3.13%	87.8% and 65.8% and 86.8%	0.1% and 0.36% and 0.49%	39.5% and 53.2% and 33.4%	44.5% and 40.2% and 57.7%	0.2% and 1.08% and 1.83%	56.1% and 61.6% and 54.4%	24.3% and 31% and 39%	0.6% and 3.31% and 1.13%	1.31	low activity	–	–
Cn1cc(-n2cnc3c(NCc4nc5cc(Cl)c(Cl)cc5[nH]4)nc(N4CCOCC4)nc32)cn1 [SR4835]	–	–	–	–	–	–	–	–	–	–	–	well tolerated	effectively inhibited tumor growth
